{
  "source": "PubChem BioAssay (NCI)",
  "test_in_all_cases": "NCI anticancer screen, dose series, 48 h",
  "key": {"HS 578T breast": {"system": "HS 578T breast"}, "OVCAR-4 ovarian": {"system": "OVCAR-4 ovarian"}, "HL-60(TB) leukemia": {"system": "HL-60(TB) leukemia"}, "T-47D breast": {"system": "T-47D breast"}, "A498 renal": {"system": "A498 renal"}, "NCI-H226 lung": {"system": "NCI-H226 lung"}, "SK-MEL-5 melanoma": {"system": "SK-MEL-5 melanoma"}, "HCT-15 colon": {"system": "HCT-15 colon"}, "PC-3 prostate": {"system": "PC-3 prostate"}, "LOX IMVI melanoma": {"system": "LOX IMVI melanoma"}, "SK-OV-3 ovarian": {"system": "SK-OV-3 ovarian"}, "EKVX NSCLC": {"system": "EKVX NSCLC"}, "IGROV1 ovarian": {"system": "IGROV1 ovarian"}, "CAKI-1 renal": {"system": "CAKI-1 renal"}, "BT-549 breast": {"system": "BT-549 breast"}, "UACC-257 melanoma": {"system": "UACC-257 melanoma"}, "HCC-2998 colon": {"system": "HCC-2998 colon"}, "786-0 renal": {"system": "786-0 renal"}, "MALME-3M melanoma": {"system": "MALME-3M melanoma"}, "HCT-116 colon": {"system": "HCT-116 colon"}, "MDA-MB-231 breast": {"system": "MDA-MB-231 breast"}, "SNB-19 CNS": {"system": "SNB-19 CNS"}, "HT29 colon": {"system": "HT29 colon"}, "COLO 205 colon": {"system": "COLO 205 colon"}, "TK-10 renal": {"system": "TK-10 renal"}, "A549 NSCLC": {"system": "A549 NSCLC"}, "SK-MEL-2 melanoma": {"system": "SK-MEL-2 melanoma"}, "NCI-H522 lung": {"system": "NCI-H522 lung"}, "HOP-62 NSCLC": {"system": "HOP-62 NSCLC"}},
  "note": "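Interpolation was linear, between the two tested concentrations surrounding the appropriate level; five concentrations were tested over 48 hours in 96-well plates. Here, GI50 denotes the concentration required for 50% inhibition of growth. At the TGI there is no net growth.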",
  "data": [
    {"smiles": "COc1cc2cc(C(=O)N3C[C@@H](CCl)c4c3cc(OC(=O)N(CCC(=O)N3CCN(C)CC3)C3CCCCC3)c3ccccc43)[nH]c2c(OC)c1OC", "values": [
      {"measurement": "GI50", "setting": "HS 578T breast", "value": 2420, "unit": "nM"},
      {"measurement": "TGI", "setting": "HS 578T breast", "value": 7110, "unit": "nM"},
      {"measurement": "GI50", "setting": "OVCAR-4 ovarian", "value": 2340, "unit": "nM"},
      {"measurement": "TGI", "setting": "OVCAR-4 ovarian", "value": 6350, "unit": "nM"},
      {"measurement": "GI50", "setting": "HL-60(TB) leukemia", "value": 751, "unit": "nM"},
      {"measurement": "TGI", "setting": "HL-60(TB) leukemia", "value": 3730, "unit": "nM"},
      {"measurement": "GI50", "setting": "T-47D breast", "value": 1900, "unit": "nM"},
      {"measurement": "TGI", "setting": "T-47D breast", "value": 6630, "unit": "nM"},
      {"measurement": "GI50", "setting": "A498 renal", "value": 2770, "unit": "nM"},
      {"measurement": "TGI", "setting": "A498 renal", "value": 5270, "unit": "nM"},
      {"measurement": "GI50", "setting": "NCI-H226 lung", "value": 1440, "unit": "nM"},
      {"measurement": "TGI", "setting": "NCI-H226 lung", "value": 4210, "unit": "nM"},
      {"measurement": "GI50", "setting": "SK-MEL-5 melanoma", "value": 1640, "unit": "nM"},
      {"measurement": "TGI", "setting": "SK-MEL-5 melanoma", "value": 3220, "unit": "nM"},
      {"measurement": "GI50", "setting": "HCT-15 colon", "value": 1730, "unit": "nM"},
      {"measurement": "TGI", "setting": "HCT-15 colon", "value": 6710, "unit": "nM"},
      {"measurement": "GI50", "setting": "PC-3 prostate", "value": 3140, "unit": "nM"},
      {"measurement": "TGI", "setting": "PC-3 prostate", "value": "> 100000", "unit": "nM"},
      {"measurement": "GI50", "setting": "LOX IMVI melanoma", "value": 1100, "unit": "nM"},
      {"measurement": "TGI", "setting": "LOX IMVI melanoma", "value": 2760, "unit": "nM"},
      {"measurement": "GI50", "setting": "SK-OV-3 ovarian", "value": 2150, "unit": "nM"},
      {"measurement": "TGI", "setting": "SK-OV-3 ovarian", "value": 9350, "unit": "nM"},
      {"measurement": "GI50", "setting": "EKVX NSCLC", "value": 1950, "unit": "nM"},
      {"measurement": "TGI", "setting": "EKVX NSCLC", "value": 5890, "unit": "nM"},
      {"measurement": "GI50", "setting": "IGROV1 ovarian", "value": 2310, "unit": "nM"},
      {"measurement": "TGI", "setting": "IGROV1 ovarian", "value": 7760, "unit": "nM"},
      {"measurement": "GI50", "setting": "CAKI-1 renal", "value": 1490, "unit": "nM"},
      {"measurement": "TGI", "setting": "CAKI-1 renal", "value": 7650, "unit": "nM"},
      {"measurement": "GI50", "setting": "BT-549 breast", "value": 1590, "unit": "nM"},
      {"measurement": "TGI", "setting": "BT-549 breast", "value": 4220, "unit": "nM"},
      {"measurement": "GI50", "setting": "UACC-257 melanoma", "value": 1990, "unit": "nM"},
      {"measurement": "TGI", "setting": "UACC-257 melanoma", "value": 4630, "unit": "nM"},
      {"measurement": "GI50", "setting": "HCC-2998 colon", "value": 1520, "unit": "nM"},
      {"measurement": "TGI", "setting": "HCC-2998 colon", "value": 3480, "unit": "nM"},
      {"measurement": "GI50", "setting": "786-0 renal", "value": 1730, "unit": "nM"},
      {"measurement": "TGI", "setting": "786-0 renal", "value": 10100, "unit": "nM"},
      {"measurement": "GI50", "setting": "MALME-3M melanoma", "value": 1570, "unit": "nM"},
      {"measurement": "TGI", "setting": "MALME-3M melanoma", "value": 3050, "unit": "nM"},
      {"measurement": "GI50", "setting": "HCT-116 colon", "value": 1500, "unit": "nM"},
      {"measurement": "TGI", "setting": "HCT-116 colon", "value": 9940, "unit": "nM"},
      {"measurement": "GI50", "setting": "MDA-MB-231 breast", "value": 3070, "unit": "nM"},
      {"measurement": "TGI", "setting": "MDA-MB-231 breast", "value": 8630, "unit": "nM"},
      {"measurement": "GI50", "setting": "SNB-19 CNS", "value": 2220, "unit": "nM"},
      {"measurement": "TGI", "setting": "SNB-19 CNS", "value": 20000, "unit": "nM"},
      {"measurement": "GI50", "setting": "HT29 colon", "value": 1520, "unit": "nM"},
      {"measurement": "TGI", "setting": "HT29 colon", "value": 4240, "unit": "nM"},
      {"measurement": "GI50", "setting": "COLO 205 colon", "value": 1370, "unit": "nM"},
      {"measurement": "TGI", "setting": "COLO 205 colon", "value": 2800, "unit": "nM"},
      {"measurement": "GI50", "setting": "TK-10 renal", "value": 2850, "unit": "nM"},
      {"measurement": "TGI", "setting": "TK-10 renal", "value": 8530, "unit": "nM"},
      {"measurement": "GI50", "setting": "A549 NSCLC", "value": 1990, "unit": "nM"},
      {"measurement": "TGI", "setting": "A549 NSCLC", "value": "> 100000", "unit": "nM"},
      {"measurement": "GI50", "setting": "SK-MEL-2 melanoma", "value": 1980, "unit": "nM"},
      {"measurement": "TGI", "setting": "SK-MEL-2 melanoma", "value": 3500, "unit": "nM"},
      {"measurement": "GI50", "setting": "NCI-H522 lung", "value": 1700, "unit": "nM"},
      {"measurement": "TGI", "setting": "NCI-H522 lung", "value": 4530, "unit": "nM"},
      {"measurement": "GI50", "setting": "HOP-62 NSCLC", "value": 594, "unit": "nM"},
      {"measurement": "TGI", "setting": "HOP-62 NSCLC", "value": 9110, "unit": "nM"}
    ]}
  ]
}
